Laboratory results from ChEMBL document CHEMBL4152385, “Synthesis, Receptor Affinity, and Antiallodynic Activity of Spirocyclic σ Receptor Ligands with Exocyclic Amino Moiety” (J Med Chem, 2018).
Activity calls are given as the source filed them. The rule behind the calls is not given here.

Experiments:
[1] = target: Sigma non-opioid intracellular receptor 1 (Cavia porcellus, UniProt Q60492); test: Displacement of [3H]-(+)-pentazocine from sigma1 receptor in guinea pig brain cortex membranes incubated for 120 mins by scintillation counting method; format: cell membranes
Chain of Sigma non-opioid intracellular receptor 1 (Q60492 whole entry): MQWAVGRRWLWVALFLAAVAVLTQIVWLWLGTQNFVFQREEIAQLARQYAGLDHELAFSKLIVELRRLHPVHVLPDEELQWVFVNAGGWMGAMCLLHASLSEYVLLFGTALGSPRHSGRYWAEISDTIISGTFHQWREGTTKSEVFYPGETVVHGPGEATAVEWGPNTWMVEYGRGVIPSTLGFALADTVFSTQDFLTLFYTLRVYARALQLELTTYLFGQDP

[2] = target: T1, Sigma intracellular receptor 2 (Rattus norvegicus, UniProt Q5U3Y7); test: Displacement of [3H]-di-o-tolylguanidine from sigma2 receptor in rat liver membranes incubated for 120 mins by scintillation counting method; format: cell membranes, Membrane
T1 sequence (Q5U3Y7 whole entry): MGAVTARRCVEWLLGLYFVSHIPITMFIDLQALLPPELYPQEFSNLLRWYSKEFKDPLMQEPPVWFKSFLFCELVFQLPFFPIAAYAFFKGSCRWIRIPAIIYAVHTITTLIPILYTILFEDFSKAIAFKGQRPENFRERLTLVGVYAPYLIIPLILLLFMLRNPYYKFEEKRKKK

[3] = target: T1, Sigma intracellular receptor 2; test: Displacement of [3H]-DTG from sigma2 receptor in rat liver membranes; format: cell membranes, Membrane
[4] = system: Mus musculus; test: Antiallodynic activity in CD1 mouse model of capsaicin-induced mechanical allodynia assessed as effect on paw withdrawal latency time at 2 to 64 mg/kg, sc administered 30 mins before capsaicin addition and measured at 30 secs intervals; format: functional, organism-based
[5] = system: Mus musculus; test: Antiallodynic activity in CD1 mouse model of capsaicin-induced mechanical allodynia assessed as effect on paw withdrawal latency time at 4 to 64 mg/kg, sc administered 30 mins before capsaicin addition and measured at 30 secs intervals; format: functional, organism-based
[6] = target: Sodium-dependent serotonin transporter (Homo sapiens) (UniProt P31645); test: Inhibition of SERT (unknown origin) at 1 uM relative to control
Chain of Sodium-dependent serotonin transporter (Homo sapiens) (P31645 whole entry, looked up): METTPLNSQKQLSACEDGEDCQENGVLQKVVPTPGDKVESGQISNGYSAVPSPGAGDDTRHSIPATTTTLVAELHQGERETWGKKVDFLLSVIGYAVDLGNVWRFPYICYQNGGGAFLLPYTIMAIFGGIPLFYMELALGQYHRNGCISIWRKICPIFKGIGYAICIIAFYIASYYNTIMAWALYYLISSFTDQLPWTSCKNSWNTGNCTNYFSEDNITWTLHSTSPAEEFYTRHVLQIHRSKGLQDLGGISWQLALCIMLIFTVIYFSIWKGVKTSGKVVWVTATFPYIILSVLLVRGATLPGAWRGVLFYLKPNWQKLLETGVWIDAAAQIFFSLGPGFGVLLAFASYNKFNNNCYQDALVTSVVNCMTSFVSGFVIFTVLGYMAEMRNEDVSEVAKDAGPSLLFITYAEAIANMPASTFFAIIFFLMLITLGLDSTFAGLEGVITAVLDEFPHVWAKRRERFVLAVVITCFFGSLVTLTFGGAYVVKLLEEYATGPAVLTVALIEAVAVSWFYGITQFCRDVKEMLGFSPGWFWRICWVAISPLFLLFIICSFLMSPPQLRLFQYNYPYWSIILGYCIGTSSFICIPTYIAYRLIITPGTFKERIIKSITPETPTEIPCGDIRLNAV

[7] = target: 5-hydroxytryptamine receptor 2B (Homo sapiens) (UniProt P41595); test: Inhibition of 5-HT2B receptor (unknown origin) at 1 uM relative to control
[8] = target: Voltage-gated inwardly rectifying potassium channel KCNH2 (Homo sapiens, UniProt Q12809); test: Inhibition of human ERG expressed in CHO cells by automated patch clamp assay; format: cell-based
Chain of Voltage-gated inwardly rectifying potassium channel KCNH2 (Q12809 whole entry): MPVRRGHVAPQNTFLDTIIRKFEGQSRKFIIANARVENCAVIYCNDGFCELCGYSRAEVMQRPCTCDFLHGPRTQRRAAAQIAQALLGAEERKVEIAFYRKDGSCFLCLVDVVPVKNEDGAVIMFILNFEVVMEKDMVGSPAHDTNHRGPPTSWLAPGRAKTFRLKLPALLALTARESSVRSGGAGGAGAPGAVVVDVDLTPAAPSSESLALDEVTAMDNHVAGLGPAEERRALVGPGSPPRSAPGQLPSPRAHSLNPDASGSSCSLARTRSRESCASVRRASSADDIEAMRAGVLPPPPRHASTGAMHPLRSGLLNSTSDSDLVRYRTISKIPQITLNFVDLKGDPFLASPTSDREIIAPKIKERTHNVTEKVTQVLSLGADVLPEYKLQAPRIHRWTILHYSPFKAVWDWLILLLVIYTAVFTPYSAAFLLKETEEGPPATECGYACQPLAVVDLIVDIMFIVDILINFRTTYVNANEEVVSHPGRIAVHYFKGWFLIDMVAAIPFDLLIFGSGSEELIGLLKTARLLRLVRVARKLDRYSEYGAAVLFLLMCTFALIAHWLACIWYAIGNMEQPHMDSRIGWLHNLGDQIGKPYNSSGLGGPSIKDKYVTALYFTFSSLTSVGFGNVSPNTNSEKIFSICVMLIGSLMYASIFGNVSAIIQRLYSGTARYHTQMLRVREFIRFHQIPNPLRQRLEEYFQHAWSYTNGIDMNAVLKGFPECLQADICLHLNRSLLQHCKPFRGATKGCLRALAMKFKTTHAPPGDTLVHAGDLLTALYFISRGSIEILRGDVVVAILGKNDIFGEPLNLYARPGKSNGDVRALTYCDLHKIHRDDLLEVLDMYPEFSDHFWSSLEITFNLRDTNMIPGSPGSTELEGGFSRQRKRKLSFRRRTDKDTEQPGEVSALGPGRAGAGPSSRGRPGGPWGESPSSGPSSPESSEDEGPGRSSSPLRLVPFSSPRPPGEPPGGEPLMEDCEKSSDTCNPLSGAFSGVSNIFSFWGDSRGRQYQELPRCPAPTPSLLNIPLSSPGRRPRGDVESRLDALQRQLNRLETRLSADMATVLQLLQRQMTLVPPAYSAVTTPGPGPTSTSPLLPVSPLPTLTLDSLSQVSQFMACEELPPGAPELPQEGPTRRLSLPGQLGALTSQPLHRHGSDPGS

[9] = target: Mu-type opioid receptor (Cavia porcellus, UniProt P97266); test: Displacement of [3H]DAMGO from MOR in guinea pig brain membranes incubated for 120 mins by scintillation counting method; format: cell membranes, Membrane
[10] = Displacement of [3H]-(+)-MK-801 from NMDA PCP binding site in pig brain cortex membrane incubated for 120 mins by scintillation counting method; format: cell membranes, Sus scrofa
[11] = target: T2, Alpha-1A adrenergic receptor (Homo sapiens) (UniProt P35348); test: Inhibition of alpha-1A adrenergic receptor (unknown origin) at 1 uM relative to control
T2 sequence (whole entry): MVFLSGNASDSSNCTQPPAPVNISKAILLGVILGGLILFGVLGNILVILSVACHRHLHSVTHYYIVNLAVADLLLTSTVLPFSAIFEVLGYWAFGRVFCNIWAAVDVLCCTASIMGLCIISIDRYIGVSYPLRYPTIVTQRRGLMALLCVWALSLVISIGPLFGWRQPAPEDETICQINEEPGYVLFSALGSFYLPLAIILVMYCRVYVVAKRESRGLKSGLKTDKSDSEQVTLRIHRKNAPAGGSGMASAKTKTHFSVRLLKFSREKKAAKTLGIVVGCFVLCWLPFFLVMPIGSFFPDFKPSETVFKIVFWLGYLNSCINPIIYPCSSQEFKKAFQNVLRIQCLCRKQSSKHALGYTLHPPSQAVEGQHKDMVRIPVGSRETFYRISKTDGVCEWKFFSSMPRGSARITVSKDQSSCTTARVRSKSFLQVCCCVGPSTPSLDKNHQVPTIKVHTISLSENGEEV

[12] = Stability in pH 7.4 phosphate buffer assessed as parent compound remaining after 24 hrs by HPLC; format: physicochemical; conditions: pH 7.4, 24 h
[13] = target: T3, 5-hydroxytryptamine receptor 1A (Homo sapiens) (UniProt P08908); test: Inhibition of 5-HT1A receptor (unknown origin) at 1 uM relative to control
T3 sequence (whole entry): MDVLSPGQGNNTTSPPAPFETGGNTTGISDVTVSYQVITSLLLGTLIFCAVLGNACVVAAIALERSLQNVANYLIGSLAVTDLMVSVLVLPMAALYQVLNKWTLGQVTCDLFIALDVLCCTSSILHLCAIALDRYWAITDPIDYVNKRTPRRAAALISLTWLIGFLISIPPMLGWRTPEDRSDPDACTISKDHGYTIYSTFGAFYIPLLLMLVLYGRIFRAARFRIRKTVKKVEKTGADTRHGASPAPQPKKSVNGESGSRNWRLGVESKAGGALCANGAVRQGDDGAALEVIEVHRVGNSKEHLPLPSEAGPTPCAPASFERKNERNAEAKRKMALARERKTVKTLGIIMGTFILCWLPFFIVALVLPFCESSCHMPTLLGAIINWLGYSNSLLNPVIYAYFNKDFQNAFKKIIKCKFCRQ

[14] = Stability in pH 2 aqueous HCl solution assessed as parent compound remaining after 24 hrs by HPLC; format: physicochemical; conditions: buffer, pH 2, 24 h
[15] = target: Histamine H1 receptor (Homo sapiens) (UniProt P35367); test: Inhibition of histamine H1 receptor (unknown origin) at 1 uM relative to control
Chain of Histamine H1 receptor (Homo sapiens) (P35367 whole entry): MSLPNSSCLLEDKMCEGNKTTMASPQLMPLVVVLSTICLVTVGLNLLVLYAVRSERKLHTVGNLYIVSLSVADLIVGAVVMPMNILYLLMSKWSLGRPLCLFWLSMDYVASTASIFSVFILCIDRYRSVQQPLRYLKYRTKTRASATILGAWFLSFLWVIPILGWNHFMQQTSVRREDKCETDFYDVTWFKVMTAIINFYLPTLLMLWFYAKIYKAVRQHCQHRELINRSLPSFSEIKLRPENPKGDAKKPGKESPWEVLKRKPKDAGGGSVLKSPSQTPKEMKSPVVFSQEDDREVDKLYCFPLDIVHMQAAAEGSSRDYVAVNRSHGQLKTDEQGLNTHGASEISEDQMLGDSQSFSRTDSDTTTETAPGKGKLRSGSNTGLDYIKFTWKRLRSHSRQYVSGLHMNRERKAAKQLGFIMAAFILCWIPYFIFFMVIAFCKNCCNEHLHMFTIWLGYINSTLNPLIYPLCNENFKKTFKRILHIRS

[16] = target: Sodium-dependent dopamine transporter (Homo sapiens) (UniProt Q01959); test: Inhibition of DAT (unknown origin) at 1 uM relative to control
[17] = target: Glutamate receptor ionotropic, NMDA 2B (Homo sapiens, UniProt Q13224); test: Displacement of [3H]ifenprodil from GluN2B (unknown origin) expressed in mouse L(tk-) cell membranes incubated for 120 mins by scintillation counting method
Chain of Glutamate receptor ionotropic, NMDA 2B (Q13224 whole entry): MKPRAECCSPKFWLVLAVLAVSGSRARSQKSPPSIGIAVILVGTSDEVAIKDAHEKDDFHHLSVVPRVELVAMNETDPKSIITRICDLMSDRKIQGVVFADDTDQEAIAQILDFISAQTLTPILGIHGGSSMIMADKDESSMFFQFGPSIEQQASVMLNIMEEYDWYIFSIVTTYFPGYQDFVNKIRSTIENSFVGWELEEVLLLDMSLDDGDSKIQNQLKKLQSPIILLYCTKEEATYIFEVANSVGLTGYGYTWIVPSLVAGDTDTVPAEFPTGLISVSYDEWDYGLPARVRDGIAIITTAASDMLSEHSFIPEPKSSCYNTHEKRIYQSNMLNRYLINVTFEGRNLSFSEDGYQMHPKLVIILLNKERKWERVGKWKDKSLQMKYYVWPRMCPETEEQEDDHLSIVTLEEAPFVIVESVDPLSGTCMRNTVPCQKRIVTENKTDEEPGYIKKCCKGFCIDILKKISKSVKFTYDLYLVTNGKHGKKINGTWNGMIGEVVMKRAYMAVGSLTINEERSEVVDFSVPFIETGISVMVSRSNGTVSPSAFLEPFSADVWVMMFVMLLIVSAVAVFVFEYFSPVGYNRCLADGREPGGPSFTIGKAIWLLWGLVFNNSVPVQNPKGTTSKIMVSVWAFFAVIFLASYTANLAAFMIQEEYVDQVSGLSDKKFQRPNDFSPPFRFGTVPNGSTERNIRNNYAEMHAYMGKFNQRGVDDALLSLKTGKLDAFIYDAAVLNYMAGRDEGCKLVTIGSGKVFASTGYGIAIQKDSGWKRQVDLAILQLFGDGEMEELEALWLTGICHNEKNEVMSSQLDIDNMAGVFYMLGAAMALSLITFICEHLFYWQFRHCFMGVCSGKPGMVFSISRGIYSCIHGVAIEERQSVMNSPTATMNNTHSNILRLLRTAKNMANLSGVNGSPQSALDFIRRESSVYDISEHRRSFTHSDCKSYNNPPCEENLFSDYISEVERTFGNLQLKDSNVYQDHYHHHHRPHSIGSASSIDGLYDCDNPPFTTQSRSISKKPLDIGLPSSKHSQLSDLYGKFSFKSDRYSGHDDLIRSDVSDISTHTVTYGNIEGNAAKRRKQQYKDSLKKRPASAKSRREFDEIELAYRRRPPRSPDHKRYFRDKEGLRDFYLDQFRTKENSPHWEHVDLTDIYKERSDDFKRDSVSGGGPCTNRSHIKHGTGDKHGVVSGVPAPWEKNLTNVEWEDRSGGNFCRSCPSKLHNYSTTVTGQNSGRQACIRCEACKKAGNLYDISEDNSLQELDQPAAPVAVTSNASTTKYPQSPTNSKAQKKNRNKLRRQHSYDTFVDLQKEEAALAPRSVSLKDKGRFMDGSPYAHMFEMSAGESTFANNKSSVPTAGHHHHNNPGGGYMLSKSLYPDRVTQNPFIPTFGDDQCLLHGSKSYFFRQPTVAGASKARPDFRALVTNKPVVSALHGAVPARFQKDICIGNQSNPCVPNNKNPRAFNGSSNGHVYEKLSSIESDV

[18] = target: Sodium-dependent noradrenaline transporter (Homo sapiens) (UniProt P23975); test: Inhibition of NET (unknown origin) at 1 uM relative to control
Chain of Sodium-dependent noradrenaline transporter (Homo sapiens) (P23975 whole entry): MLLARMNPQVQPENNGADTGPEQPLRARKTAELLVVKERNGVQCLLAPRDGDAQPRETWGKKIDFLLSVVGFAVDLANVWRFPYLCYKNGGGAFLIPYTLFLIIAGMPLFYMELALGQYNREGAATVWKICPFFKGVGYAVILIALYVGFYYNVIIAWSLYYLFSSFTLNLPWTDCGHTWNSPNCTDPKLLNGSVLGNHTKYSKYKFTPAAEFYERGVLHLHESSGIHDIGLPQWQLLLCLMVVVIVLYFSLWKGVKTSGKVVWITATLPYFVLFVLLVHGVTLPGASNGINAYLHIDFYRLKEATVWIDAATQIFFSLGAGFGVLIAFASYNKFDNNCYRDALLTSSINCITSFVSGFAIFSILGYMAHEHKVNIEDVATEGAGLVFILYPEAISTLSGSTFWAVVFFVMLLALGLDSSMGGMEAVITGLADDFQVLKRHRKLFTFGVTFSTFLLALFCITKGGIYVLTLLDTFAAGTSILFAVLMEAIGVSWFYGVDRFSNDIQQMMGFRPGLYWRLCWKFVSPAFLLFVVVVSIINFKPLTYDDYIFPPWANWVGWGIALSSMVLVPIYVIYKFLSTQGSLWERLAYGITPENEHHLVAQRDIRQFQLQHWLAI

[19] = target: Kappa-type opioid receptor (Cavia porcellus, UniProt P41144); test: Displacement of [3H]U-69,593 from KOR in guinea pig brain membranes incubated for 120 mins by scintillation counting method; format: cell membranes, Membrane
Chain of Kappa-type opioid receptor (P41144 whole entry): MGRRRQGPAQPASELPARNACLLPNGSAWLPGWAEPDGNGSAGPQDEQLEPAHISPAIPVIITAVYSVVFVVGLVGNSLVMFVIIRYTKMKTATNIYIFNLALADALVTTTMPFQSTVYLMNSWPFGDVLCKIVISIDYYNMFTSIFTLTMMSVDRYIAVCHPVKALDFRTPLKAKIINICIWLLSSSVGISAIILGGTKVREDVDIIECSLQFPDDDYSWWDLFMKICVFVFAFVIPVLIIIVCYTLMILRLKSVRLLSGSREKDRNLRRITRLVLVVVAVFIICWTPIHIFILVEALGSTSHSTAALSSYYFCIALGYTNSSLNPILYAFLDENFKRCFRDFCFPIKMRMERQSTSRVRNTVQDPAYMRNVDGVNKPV

With `O[C@@H]1Cc2ccccc2C2(CCC(N3CCN(C4CCCCC4)CC3)CC2)O1` (some centres undefined) the Ki [1] was 77 nM.
`CO[C@@H]1Cc2ccccc2C2(CCC(NCc3ccc(C)cc3C)CC2)O1` (some centres undefined) gave a Ki [2] of 7.6 nM and a Ki [1] of 736 nM.
`COc1cc2c(cc1OC)CN(CCCCNC(=O)c1cc(Br)cc(OC)c1OC)CC2` showed a Ki [3] of 8.2 nM and a Ki [2] of 8.2 nM.
In the case of `OCC[C@@H]1Cc2ccccc2C2(CCC(N3CCN(C4CCCCC4)CC3)CC2)O1` (some centres undefined), the Ki [2] is reported as 172 nM and the Ki [1] is reported as 61 nM.
Compound `COc1cc2c(cc1OC)CN(C1CCC3(CC1)O[C@@H](OC)Cc1ccccc13)CC2` (some centres undefined) has a Ki [2] of 105 nM.
With `Cc1ccc(CNC2CCC3(CC2)O[C@H](O)Cc2ccccc23)c(C)c1` (some centres undefined) the Ki [2] was 181 nM and the Ki [1] was 349 nM.
`COc1cccc2c1CCCC2CCCN1CCN(C2CCCCC2)CC1` (centres undefined) showed a Ki [3] of 0.68 nM and a Ki [2] of 0.68 nM.
With `Cc1ccc(CNC2CCC3(CC2)O[C@@H](CCF)Cc2ccccc23)c(C)c1` (some centres undefined) the Ki [1] was 966 nM.
`FCC[C@@H]1Cc2ccccc2C2(CCC(NC3CCc4ccccc4CC3)CC2)O1` (some centres undefined) showed a Ki [2] of 305 nM and a Ki [1] of 667 nM.
For `CO[C@H]1Cc2ccccc2C2(CCC(NC3CCc4ccccc4CC3)CC2)O1` (some centres undefined), the Ki [2] was 77 nM and the Ki [1] was 265 nM.
For `CO[C@H]1Cc2ccccc2C2(CCC(NCc3ccc(C)cc3C)CC2)O1` (some centres undefined), the Ki [2] was 54 nM.
For `COc1cc2c(cc1OC)CN(C1CCC3(CC1)O[C@H](OC)Cc1ccccc13)CC2` (some centres undefined), the Ki [2] was 58 nM and the Ki [1] was 639 nM.
For `CN1CCN(CCc2ccc(Cl)c(Cl)c2)CC1`, the Activity [4] was “Active” and the Activity [5] was “Active”.
In the case of `CO[C@H]1Cc2ccccc2C2(CCC(NCCCc3cn(-c4ccc(F)cc4)c4ccccc34)CC2)O1` (some centres undefined), the Ki [1] is reported as 635 nM.
With `OCC[C@H]1Cc2ccccc2C2(CCC(N3CCN(C4CCCCC4)CC3)CC2)O1` (some centres undefined) the Ki [1] was 28 nM.
For `CCOC(=O)C[C@H]1Cc2ccccc2C2(CCC(N3CCN(C4CCCCC4)CC3)CC2)O1` (some centres undefined), the inhibition [6] was less than 50%, the inhibition [7] was less than 50% and the IC50 [8] was 1750 nM. The Ki [9] was 458 nM, the Ki [10] was greater than 1000 nM and the inhibition [11] was 78%. For the same compound, the Stability [12] was “Stable”, the inhibition [13] was 68% and the Ki [2] was 51 nM. For the same compound, the Stability [14] was “Stable”, the inhibition [15] was 98% and the inhibition [16] was less than 50%. It also gave a Ki [17] of 54 nM and an inhibition [18] of less than 50%.
`O[C@H]1Cc2ccccc2C2(CCC(N3CCN(C4CCCCC4)CC3)CC2)O1` (some centres undefined) showed an inhibition [6] of less than 50%, an inhibition [7] of less than 50% and an IC50 [8] of 3210 nM. For the same compound, the Ki [10] was greater than 1000 nM, the Ki [19] was 781 nM and the inhibition [11] was less than 50%. The Stability [12] was “Stable”, the inhibition [13] was 55% and the Ki [2] was 27 nM. For the same compound, the Ki [1] was 47 nM, the Stability [14] was “Stable” and the inhibition [15] was 76%. The inhibition [16] was less than 50%, the Ki [17] was 34 nM and the inhibition [18] was less than 50%.
With `CCOC(=O)C[C@@H]1Cc2ccccc2C2(CCC(NCc3ccc(C)cc3C)CC2)O1` (some centres undefined) the Ki [2] was 231 nM.
